From patent US7714146B2, “Azulene-oxindole compounds as multiple-kinase inhibitors and useful as anticancer agents” (Industrial Technology Research Institute, priority 2006, dated 2010)

How the values were obtained:
Assay type in all cases: biochemical
[1] = biological target: T1, human c-KIT (Thr544-Val976) (Homo sapiens, UniProt P10721); experiment: c-KIT kinase assay (HTScan kit, DELFIA); conditions: for inhibition at 0.1 µM: read-out: c-KIT 0.1 μM, % of inhibition relative to control; for inhibition at 1 µM: read-out: c-KIT 1 μM, % of inhibition relative to control
T1 construct: human c-KIT (Thr544-Val976); GST (N); purchased Cell Signaling Technology; host or cells: baculovirus expression system
Outline: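 GST-tagged human c-KIT (Thr544-Val976) from baculovirus, with 1.5 μM biotinylated KDR Tyr-996 peptide and 20 μM ATP in HEPES pH 7.5 buffer containing Mg2+/Mn2+ and 1% DMSO. Enzyme and compound pre-incubated 5 min, reaction run 30 min at room temperature; phosphorylation detected by DELFIA.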

[2] = biological target: T2, human FLT-3 (Arg571-Ser993) (Homo sapiens, UniProt P36888); experiment: FLT-3 kinase assay (HTScan kit, DELFIA); conditions: for inhibition at 1 µM: read-out: FLT-3 1 μM, % of inhibition relative to control; for inhibition at 0.1 µM: read-out: FLT-3 0.1 μM, % of inhibition relative to control
T2 construct: human FLT-3 (Arg571-Ser993); GST (N); purchased Cell Signaling Technology; host or cells: baculovirus expression system
T2 sequence (P36888 571-993): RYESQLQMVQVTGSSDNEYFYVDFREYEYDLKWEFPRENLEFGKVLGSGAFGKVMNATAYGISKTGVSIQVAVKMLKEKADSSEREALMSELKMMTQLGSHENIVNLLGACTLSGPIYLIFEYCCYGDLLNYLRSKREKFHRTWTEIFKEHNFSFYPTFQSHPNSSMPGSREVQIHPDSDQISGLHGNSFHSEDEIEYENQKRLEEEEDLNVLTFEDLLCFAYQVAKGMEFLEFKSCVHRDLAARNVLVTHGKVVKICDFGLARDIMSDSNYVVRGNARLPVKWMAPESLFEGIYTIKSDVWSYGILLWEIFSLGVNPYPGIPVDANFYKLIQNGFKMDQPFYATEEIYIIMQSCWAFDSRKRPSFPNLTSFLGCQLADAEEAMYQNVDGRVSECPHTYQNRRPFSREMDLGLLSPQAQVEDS
Outline: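 GST-tagged human FLT-3 (Arg571-Ser993, baculovirus-expressed) phosphorylated 1.5 μM biotinylated gastrin precursor peptide with 20 μM ATP in HEPES pH 7.5, Mg/Mn buffer and 1% DMSO. After 5 min preincubation, the reaction ran 30 min at room temperature. Phosphorylation was read by DELFIA.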

[3] = biological target: T3, human VEGFR-2 (Val789-Val1356) (Homo sapiens, UniProt P35968); experiment: KDR kinase assay (HTScan VEGFR-2 kit, DELFIA); conditions: for inhibition at 1 µM: read-out: KDR 1 μM, % of inhibition relative to control; for inhibition at 0.1 µM: read-out: KDR 0.1 μM, % of inhibition relative to control
T3 construct: human VEGFR-2 (Val789-Val1356); GST (N); purchased Cell Signaling Technology; host or cells: baculovirus expression system
Outline: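 GST-tagged human VEGFR-2 (Val789-Val1356) from baculovirus, with 1.5 μM biotinylated gastrin precursor peptide and 20 μM ATP in HEPES pH 7.5, Mg/Mn, vanadate, DTT, 1% DMSO. Pre-incubation 5 min, reaction 30 min at room temperature; phosphorylation read by DELFIA.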

[4] = biological target: T4, human EGFR (His672-Ala1210) (Homo sapiens, UniProt P00533); experiment: EGFR kinase assay (HTScan kit, DELFIA); conditions: for inhibition at 0.1 µM: read-out: EGFR 0.1 μM, % of inhibition relative to control; for inhibition at 1 µM: read-out: EGFR 1 μM, % of inhibition relative to control
T4 construct: human EGFR (His672-Ala1210); GST (N); purchased Cell Signaling Technology; host or cells: baculovirus expression system
Experimental: Compounds 1-100 were treated for their efficacy in inhibiting activities of FLT-3, c-KIT, KDR/Flk-1, PDGFR-beta, EGFR, and PKC kinases by biochemical DELFIA (Dissociation Enhanced Lanthanide FIA) assays according to the procedure described below. The assays were conducted by, Division of Cell Engineering, Biomedical Engineering Research Laboratories, Industrial Technology Research Institute, Bldg. 53, 195, sec. 4, Chung Hsing Rd. Chutung, Hsinchu, Taiwan 310, R.O.C.
The EGFR assay was conducted following the protocol described in Protocol for HTScan® EGFR Kinase Assay Kit (Cell Signaling Technology®). The assay was conducted under the following conditions: EGFR source: The GST-kinase fusion protein was produced using a baculovirus expression system with a construct expressing human EGFR (His672-Ala1210) (GenBank Accession No. NM_005228) with an amino-terminal GST tag, substrate: 1.5 μM This biotinylated peptide contains the residues surrounding Tyr-66 of PTP1B, vehicle: 1% DMSO, pre-incubation time/temperature: 5 minutes at room temperature, incubation time/temperature: 30 minutes at room temperature, incubation buffer: 60 mM HEPES pH 7.5, 5 mM MgCl2, 5 mM MnCl2, 3 μM Na3VO4, 1.25 mM DTT, 20 μM ATP, and quantitative method: DELFIA® Assay.

T4 sequence (P00533 672-1210): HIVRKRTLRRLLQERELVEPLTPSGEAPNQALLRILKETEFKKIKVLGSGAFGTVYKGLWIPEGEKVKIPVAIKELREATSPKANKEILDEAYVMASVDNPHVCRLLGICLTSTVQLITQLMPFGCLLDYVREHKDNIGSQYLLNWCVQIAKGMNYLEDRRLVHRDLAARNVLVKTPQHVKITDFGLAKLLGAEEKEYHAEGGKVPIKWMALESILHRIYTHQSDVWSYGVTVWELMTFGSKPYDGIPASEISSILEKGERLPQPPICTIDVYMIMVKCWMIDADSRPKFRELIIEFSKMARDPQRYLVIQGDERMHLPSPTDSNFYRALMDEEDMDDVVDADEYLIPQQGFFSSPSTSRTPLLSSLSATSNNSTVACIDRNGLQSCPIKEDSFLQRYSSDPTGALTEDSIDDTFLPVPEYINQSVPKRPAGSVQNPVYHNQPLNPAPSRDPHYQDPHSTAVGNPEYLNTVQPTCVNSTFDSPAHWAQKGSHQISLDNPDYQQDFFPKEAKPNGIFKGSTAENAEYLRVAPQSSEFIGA
T3 sequence (P35968 789-1356): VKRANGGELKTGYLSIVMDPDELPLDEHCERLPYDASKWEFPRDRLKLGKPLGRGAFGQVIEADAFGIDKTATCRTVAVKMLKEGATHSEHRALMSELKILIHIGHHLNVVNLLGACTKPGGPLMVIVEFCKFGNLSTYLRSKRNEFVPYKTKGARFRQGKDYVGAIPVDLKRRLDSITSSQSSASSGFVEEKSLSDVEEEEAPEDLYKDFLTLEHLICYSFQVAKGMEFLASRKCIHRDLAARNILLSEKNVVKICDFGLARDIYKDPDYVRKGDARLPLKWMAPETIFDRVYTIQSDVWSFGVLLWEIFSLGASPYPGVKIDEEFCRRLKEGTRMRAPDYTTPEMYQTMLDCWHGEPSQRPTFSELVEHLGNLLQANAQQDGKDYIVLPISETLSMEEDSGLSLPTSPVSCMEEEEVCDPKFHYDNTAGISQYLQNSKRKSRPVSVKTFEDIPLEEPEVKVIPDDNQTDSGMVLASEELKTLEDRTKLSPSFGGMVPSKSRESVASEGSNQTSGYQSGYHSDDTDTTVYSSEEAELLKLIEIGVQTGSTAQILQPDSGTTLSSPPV
T1 sequence (P10721 544-976): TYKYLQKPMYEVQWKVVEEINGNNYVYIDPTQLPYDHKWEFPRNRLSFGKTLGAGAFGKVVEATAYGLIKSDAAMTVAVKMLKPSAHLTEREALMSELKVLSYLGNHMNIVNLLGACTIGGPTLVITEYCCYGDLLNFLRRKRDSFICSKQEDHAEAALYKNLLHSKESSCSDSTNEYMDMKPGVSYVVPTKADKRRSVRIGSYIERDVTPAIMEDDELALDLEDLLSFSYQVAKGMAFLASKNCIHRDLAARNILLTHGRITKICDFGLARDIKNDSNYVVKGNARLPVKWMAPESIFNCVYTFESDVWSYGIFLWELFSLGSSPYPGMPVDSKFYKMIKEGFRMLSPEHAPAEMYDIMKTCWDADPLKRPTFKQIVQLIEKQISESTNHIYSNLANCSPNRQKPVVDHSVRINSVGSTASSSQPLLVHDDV

Structure (SMILES)	inhibition at 0.1 µM ([1]; compound at 0.1 μM) [%]	inhibition at 1 µM ([1]; compound at 1 μM) [%]	inhibition at 1 µM ([2]; compound at 1 μM) [%]	inhibition at 1 µM ([3]; compound at 1 μM) [%]	inhibition at 0.1 µM ([4]; compound at 0.1 μM) [%]	inhibition at 1 µM ([4]; compound at 1 μM) [%]	inhibition at 0.1 µM ([2]; compound at 0.1 μM) [%]	IC50 ([1]; read-out: c-KIT kinase inhibition (IC50)) [nM]	IC50 ([2]; read-out: FLT-3 kinase inhibition (IC50)) [nM]	inhibition at 0.1 µM ([3]; compound at 0.1 μM) [%]	c-KIT 0.1 μM, % of inhibition relative to control ([1]; compound at 0.1 μM) [%]	c-KIT 1 μM, % of inhibition relative to control ([1]; compound at 1 μM) [%]	FLT-3 0.1 μM, % of inhibition relative to control ([2]; compound at 0.1 μM) [%]	FLT-3 1 μM, % of inhibition relative to control ([2]; compound at 1 μM) [%]	KDR 0.1 μM, % of inhibition relative to control ([3]; compound at 0.1 μM) [%]	KDR 1 μM, % of inhibition relative to control ([3]; compound at 1 μM) [%]	EGFR 0.1 μM, % of inhibition relative to control ([4]; compound at 0.1 μM) [%]	EGFR 1 μM, % of inhibition relative to control ([4]; compound at 1 μM) [%]
COc1ccc2c(c1)/C(=C\c1ccc3cccccc1-3)C(=O)N2 [Compound 43, 3-Azulen-1-ylmethylene-5-methoxy-1,3-dihydro-indol-2-one]	14.7	14.7	24.3	6.8	6.2	11.9												
Cc1ccc2c(c1)/C(=C/c1ccc3cccccc1-3)C(=O)N2 [Compound 48, 3-Azulen-1-ylmethylene-5-methyl-1,3-dihydro-indol-2-one]	32.2	32.2	61.6	13.8	7.8	10.4	4.5											
O=C1Nc2ccc(F)cc2/C1=C/c1cc2cccccc-2c1 [Compound 41, 3-Azulen-2-ylmethylene-5-fluoro-1,3-dihydro-indol-2-one]	76.6	76.6	87.6	30.4	6.4	9.4	74.7	6	43.4	25.2								
CN(C)c1nc2cccccc-2c1/C=C1/C(=O)Nc2ccccc21 [Compound 35, 3-(2-Dimethylamino-cyclohepta[b]pyrrol-3-ylmethylene)-1,3-dihydro-indol-2-one, with propan-2-ol]				20.3	9.5	12.1												
O=C1Nc2ccc(-c3ccccc3)cc2/C1=C/c1ccc2cccccc1-2 [Compound 34, 3-Azulen-1-ylmethylene-5-phenyl-1,3-dihydro-indol-2-one]			1.9	18.2	6.1	11.7	0.8			8.9								
Cc1cc(/C=C2/C(=O)Nc3ccc(F)cc32)c2cccccc1-2 [Compound 38, 5-Fluoro-3-(3-methyl-azulen-1-ylmethylene)-1,3-dihydro-indol-2-one]	72.6	72.6	79	8.4	0.8	1.7	40.5			2.3								
O=C1Nc2ccccc2/C1=C/c1cc2cccccc-2c1 [Compound 33, 3-Azulen-2-ylmethylene-1,3-dihydro-indol-2-one]	63.1	63.1	85.6	50.8	15.2	13	50.5			24.6								
Cc1ccc2c(c1)/C(=C\c1ccc3cccccc1-3)C(=O)N2 [Compound 47, 3-Azulen-1-ylmethylene-5-methyl-1,3-dihydro-indol-2-one]	30.7	30.7	48.6	34	8.3	14.6	0.5			7.8								
COc1ccc2c(c1)/C(=C/c1ccc3cccccc1-3)C(=O)N2 [Compound 44, 3-Azulen-1-ylmethylene-5-methoxy-1,3-dihydro-indol-2-one]	7.2	7.2	8.2	38.4	4.7	9.3	5.7											
CN(C)S(=O)(=O)c1ccc2c(c1)/C(=C/c1ccc3cccccc1-3)C(=O)N2 [Compound 50, (3Z)-3-(((3aZ,5Z,7Z)-azulen-1-yl)methylene)-5-(N,N-dimethylsulfonyl)indolin-2-one]											19.5	19.5	4.0	29.6	22.3	25.8	7.9	10.4
O=C1Nc2ccc(F)cc2/C1=C/c1cc(Br)c2cccccc1-2 [Compound 45, 3-(3-Bromo-azulen-1-ylmethylene)-5-fluoro-1,3-dihydro-indol-2-one]	73.9	73.9	69.7	41.9	2.5		51.4			32.8								
Cc1cc(C=C2C(=O)Nc3ccccc32)c2cccccc1-2 [Compound 37, 3-(3-Methyl-azulen-1-ylmethylene)-1,3-dihydro-indol-2-one]	53.2	53.2	61.5	27.6	2.9	13.6	5.9											
O=C1Nc2ccccc2/C1=C\c1cc2cccccc-2c1 [Compound 32, 3-Azulen-2-ylmethylene-1,3-dihydro-indol-2-one]	60.3	60.3	89.5	6.2	7.7	13.7	48.5											
O=C1Nc2ccc(F)cc2/C1=C\c1cc(Br)c2cccccc1-2 [Compound 51, 3-(3-Bromo-azulen-1-ylmethylene)-5-fluoro-1,3-dihydro-indol-2-one]	73.9	73.9	82.6	26.4		11.5	38.4											
O=C1Nc2c(Cl)cccc2/C1=C/c1ccc2cccccc1-2 [Compound 42, 3-Azulen-1-ylmethylene-7-chloro-1,3-dihydro-indol-2-one]	8.3	8.3	24.3	13.6	8.8	10.8	8.9			6								
Cc1cc(/C=C2/C(=O)Nc3ccccc32)c2cccccc1-2 [Compound 36, 3-(3-Methyl-azulen-1-ylmethylene)-1,3-dihydro-indol-2-one]	49.2	49.2	39.3	0.3	9.6	10.9												
